Laboratory results: PMC9894920, “Development of an improved and specific inhibitor of NADPH oxidase 2 to treat traumatic brain injury” (Redox Biology, 2023)
Values after ≈ are worked out from the molar mass of the structure shown. Where two headings read alike, the source gives them in different places.

Key:
[1] = Parallel artificial membrane permeability assay (PAMPA); type: in vitro ADME; conditions: for Papp: pH 7.4, PAMPA, pH7.4, read-out: Permeability(pH7.4) (PAMPA_Pion_Lipid 1e-6 cm/s)
Experimental: (§1) The rat liver microsomal stability, parallel artificial membrane permeability assay (PAMPA), and aqueous kinetic solubility assay in phosphate-buffered saline (PBS) buffer were performed as described in the indicated references.

[2] = Rat liver microsomal stability; type: in vitro ADME; conditions: for half-life: SD, rat, liver microsomes, read-out: Rat_SD/Microsomes t1/2 (m)
Experimental: as §1

[3] = Aqueous kinetic solubility in PBS buffer; type: physicochemical
Experimental: as §1

Bovine Xanthine Oxidase = target: T1, Bovine Xanthine Oxidase (Bos taurus, UniProt P80457); assay: Xanthine oxidase / hypoxanthine luminol chemiluminescence assay; type: biochemical; conditions: xanthine oxidase with hypoxanthine; mean ± SD, n in cell; read-out: X/XO IC50
T1 construct: purchased Sigma
Experimental: Bovine Xanthine Oxidase (Sigma) was dialyzed in PBS to remove ammonium sulfate and stored at 4 °C. Hypoxanthine was prepared by heating in DMSO. Reactions were prepared by diluting xanthine oxidase in HBSS (final concentration 1.25 mU/mL) that contained 50 μM luminol and were preincubated 5 min with control or inhibitor before the addition of hypoxanthine at a final concentration of 0.5 mM. Luminescence was measured at 24 °C as described above.

NOX2 = target: T2, NOX2 (Homo sapiens, UniProt P04839); assay: NOX2 activity in primary human granulocytes (PMN), luminol chemiluminescence; type: cell-based; set-up: When tested against NOX2 in primary human neutrophils; endogenous in cells; host or cells: primary human granulocytes (PMN) from donor blood; conditions: mean ± SD, n in cell; read-out: NOX-2 IC50 from PMN
T2 sequence (P04839 2-570 limits assumed): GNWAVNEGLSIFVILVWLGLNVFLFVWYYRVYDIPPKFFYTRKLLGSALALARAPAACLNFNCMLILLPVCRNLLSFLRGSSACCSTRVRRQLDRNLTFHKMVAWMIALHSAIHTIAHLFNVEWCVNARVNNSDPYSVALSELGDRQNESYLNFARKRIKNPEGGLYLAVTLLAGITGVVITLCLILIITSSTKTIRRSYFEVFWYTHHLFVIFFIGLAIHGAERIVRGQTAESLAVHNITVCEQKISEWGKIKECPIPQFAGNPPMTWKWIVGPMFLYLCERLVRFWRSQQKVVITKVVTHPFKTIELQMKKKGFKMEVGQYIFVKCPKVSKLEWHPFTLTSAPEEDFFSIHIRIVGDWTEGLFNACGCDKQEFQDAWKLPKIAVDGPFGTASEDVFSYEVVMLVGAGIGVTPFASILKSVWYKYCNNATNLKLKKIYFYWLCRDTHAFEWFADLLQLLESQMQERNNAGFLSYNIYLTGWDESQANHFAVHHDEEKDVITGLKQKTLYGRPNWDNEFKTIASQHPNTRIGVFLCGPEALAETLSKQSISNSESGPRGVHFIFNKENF
T2 sequence (P13498 2-195 partner limits assumed): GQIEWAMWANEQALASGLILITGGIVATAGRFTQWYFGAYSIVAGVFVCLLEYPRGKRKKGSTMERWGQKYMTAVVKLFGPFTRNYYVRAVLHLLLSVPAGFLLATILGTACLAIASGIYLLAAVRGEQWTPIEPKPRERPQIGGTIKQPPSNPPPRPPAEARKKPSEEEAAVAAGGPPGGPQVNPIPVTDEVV
Experimental: Human blood was obtained after informed consent by the Department of Transfusion Medicine (NIH Clinical Center) and provided as de-identified specimens. Human granulocytes were isolated using Percoll density fractionation as described and NOX2 activity was assessed in white polypropylene flat bottom 96 well plates following 15 min of preincubation at 37 °C with compounds or vehicle controls using 50 μM luminol as a chemiluminescence enhancer in an assay volume of 100 μl RPMI1640 with 1.1 × 10^5 cells/well in Varioskan Lux luminometer for 30 cycles of 1 s per well (approximately 1 h).

[4] = aqueous buffer, kinetic from dmso stock, read-out: Solubility

T1 sequence (P80457 whole entry): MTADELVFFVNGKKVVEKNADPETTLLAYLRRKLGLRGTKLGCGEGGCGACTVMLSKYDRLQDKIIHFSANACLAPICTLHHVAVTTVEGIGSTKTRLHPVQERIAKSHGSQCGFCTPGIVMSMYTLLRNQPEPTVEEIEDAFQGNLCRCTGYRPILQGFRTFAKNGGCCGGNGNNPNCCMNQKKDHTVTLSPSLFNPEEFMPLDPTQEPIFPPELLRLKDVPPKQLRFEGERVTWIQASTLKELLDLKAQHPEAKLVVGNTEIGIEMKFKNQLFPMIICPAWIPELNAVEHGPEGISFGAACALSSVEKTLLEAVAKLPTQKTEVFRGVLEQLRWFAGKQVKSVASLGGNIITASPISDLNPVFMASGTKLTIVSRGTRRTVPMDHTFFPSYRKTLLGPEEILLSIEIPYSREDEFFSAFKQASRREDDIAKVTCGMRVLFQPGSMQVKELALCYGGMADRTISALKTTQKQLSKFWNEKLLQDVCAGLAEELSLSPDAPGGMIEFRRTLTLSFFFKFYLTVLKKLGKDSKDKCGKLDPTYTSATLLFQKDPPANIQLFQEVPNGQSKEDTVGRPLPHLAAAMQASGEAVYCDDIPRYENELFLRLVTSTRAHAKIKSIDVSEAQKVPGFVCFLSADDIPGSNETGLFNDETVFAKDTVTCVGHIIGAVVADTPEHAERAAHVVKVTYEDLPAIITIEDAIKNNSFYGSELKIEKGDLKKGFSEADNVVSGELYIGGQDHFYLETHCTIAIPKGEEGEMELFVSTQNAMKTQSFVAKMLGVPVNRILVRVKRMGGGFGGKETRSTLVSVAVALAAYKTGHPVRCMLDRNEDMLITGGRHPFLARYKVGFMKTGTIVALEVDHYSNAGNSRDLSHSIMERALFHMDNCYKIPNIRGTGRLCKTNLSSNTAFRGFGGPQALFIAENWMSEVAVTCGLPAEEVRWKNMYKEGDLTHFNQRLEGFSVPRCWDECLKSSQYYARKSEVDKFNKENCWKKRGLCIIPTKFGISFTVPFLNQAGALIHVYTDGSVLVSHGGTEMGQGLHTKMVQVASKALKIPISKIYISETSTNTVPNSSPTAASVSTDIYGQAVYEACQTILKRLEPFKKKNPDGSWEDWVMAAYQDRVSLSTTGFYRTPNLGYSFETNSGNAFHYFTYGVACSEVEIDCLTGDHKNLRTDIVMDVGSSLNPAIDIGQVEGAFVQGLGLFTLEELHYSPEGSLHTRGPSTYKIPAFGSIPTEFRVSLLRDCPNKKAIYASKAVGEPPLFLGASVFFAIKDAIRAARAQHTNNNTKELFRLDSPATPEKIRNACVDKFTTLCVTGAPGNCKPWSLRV

SMILES	Papp [1]	half-life [2]	solubility [3, 4]	IC50 (Bovine Xanthine Oxidase)	IC50 (NOX2)	Permeability(pH7.4) (PAMPA_Pion_Lipid 1e-6 cm/s) [1]	Rat_SD/Microsomes t1/2 (m) [2]	solubility [3]
CC(C)n1cc(-c2ccc3c(c2)N(C)CC3)c2c(N[S+](=O)([O-])c3ccn(C)n3)ccnc21 [NCGC00507962, CC(C)[N]1C=C(C2=CC3=C(CCN3C)C=C2)C4=C(N[S+]([O-])(=O)C5=N[N](C)C=C5)C=CN=C14]	1030 ×10⁻⁶ cm/s	1.1 min	36.7 µg/mL (≈ 81.5 µM)					
CC(n1cc(-c2ccc3ccn(C)c3c2)c2c(N[S+](=O)([O-])c3ccn(C)n3)ccnc21)C(F)(F)F (stereo not shown) [NCGC00600714, CC(N1C=C(C2=C(N[S+]([O-])(=O)C3=NN(C)C=C3)C=CN=C12)C4=CC5=C(C=CN5C)C=C4)C(F)(F)F]	479 ×10⁻⁶ cm/s	7.7 min	< 1 µg/mL	4700 nM	328 nM			
CC(n1cc(-c2ccc3c(c2)N(C)CC3)c2c(N[S+](=O)([O-])c3ccn(C)n3)ccnc21)C(F)(F)F (stereo not shown) [NCGC00600887, CC(N1C=C(C2=C(N[S+]([O-])(=O)C3=NN(C)C=C3)C=CN=C12)C4=CC5=C(CCN5C)C=C4)C(F)(F)F]	629 ×10⁻⁶ cm/s	3.3 min	21.9 µg/mL (≈ 43.4 µM)	872 nM	541 nM			
CN1CCc2ccc(-c3cn(CC(F)(F)F)c4nccc(N[S+](=O)([O-])c5ccn(C)n5)c34)cc21 [NCGC00600903, CN1C=CC(=N1)[S+]([O-])(=O)NC2=C3C(=CN(CC(F)(F)F)C3=NC=C2)C4=CC5=C(CCN5C)C=C4]	53.6 ×10⁻⁶ cm/s	3.3 min	12.2 µg/mL (≈ 24.9 µM)	56 ± 79 nM	1680 ± 2070 nM			
Cn1ccc([S+](=O)([O-])Nc2ccnc3c2c(-c2ccc4c(c2)C(NC(=O)OC(C)(C)C)CC4)cn3C2CC2)n1 (stereo not shown) [NCGC00650021, CN1C=CC(=N1)[S+]([O-])(=O)NC2=C3C(=CN(C4CC4)C3=NC=C2)C5=CC6=C(CCC6NC(=O)OC(C)(C)C)C=C5]	1940 ×10⁻⁶ cm/s	5.7 min	26.2 µg/mL (≈ 47.8 µM)	4430 nM	2420 nM			
O=C1N(C2CC2)c2cc(-c3cn(C4CC4)c4nccc(N[S+](=O)([O-])c5ccn(C6CC6)n5)c34)ccc2C12CC2 [NCGC00650041, [O-][S+](=O)(NC1=C2C(=CN(C3CC3)C2=NC=C1)C4=CC5=C(C=C4)C6(CC6)C(=O)N5C7CC7)C8=NN(C=C8)C9CC9]	615 ×10⁻⁶ cm/s	6.2 min	2 µg/mL (≈ 3.7 µM)	180 nM				
Cn1ccc([S+](=O)([O-])Nc2ccnc3c2c(-c2ccc4ccn(C)c4c2)cn3C2CC2)n1 [NCGC00650045, CN1C=CC(=N1)[S+]([O-])(=O)NC2=C3C(=CN(C4CC4)C3=NC=C2)C5=CC6=C(C=CN6C)C=C5]		1 min	2.2 µg/mL (≈ 4.93 µM)		> 20000 nM			
O=[S+]([O-])(Nc1ccnc2c1c(-c1ccc3c(c1)C(O)CC3)cn2C1CC1)c1ccn(C2CC2)n1 (stereo not shown) [NCGC00650064, OC1CCC2=C1C=C(C=C2)C3=CN(C4CC4)C5=NC=CC(N[S+]([O-])(=O)C6=NN(C=C6)C7CC7)=C35]	386 ×10⁻⁶ cm/s	6.9 min	35.9 µg/mL (≈ 75.5 µM)	> 20000 nM				
O=C1CCc2ccc(-c3cn(C4CC4)c4nccc(N[S+](=O)([O-])c5ccn(C6CC6)n5)c34)cc21 [NCGC00650069, [O-][S+](=O)(NC1=C2C(=CN(C3CC3)C2=NC=C1)C4=CC5=C(CCC5=O)C=C4)C6=NN(C=C6)C7CC7]					1780 nM	188.5 1e-6 cm/s	16 m	30 µg/mL (≈ 63.4 µM)
O=C1CCc2ccc(-c3cn(C4CC4)c4nccc(N[S+](=O)([O-])c5ccn(C6CC6)n5)c34)cc21 [NCGC00650070, [O-][S+](=O)(NC1=C2C(=CN(C3CC3)C2=NC=C1)C4=CC5=C(CCC5=O)C=C4)C6=NN(C=C6)C7CC7]	256 ×10⁻⁶ cm/s	13.2 min	38.5 µg/mL (≈ 81.3 µM)		966 nM			
Cn1ccc([S+](=O)([O-])Nc2ccnc3c2c(-c2ccc4c(c2)N(C2CC2)CC4)cn3CC2CCCCC2)n1 [NCGC00650102, CN1C=CC(=N1)[S+]([O-])(=O)NC2=C3C(=CN(CC4CCCCC4)C3=NC=C2)C5=CC6=C(CCN6C7CC7)C=C5]	160 ×10⁻⁶ cm/s		5.3 µg/mL (≈ 9.99 µM)	4070 ± 5430 nM	2050 nM			

Now from value to compound, other results behind:

Papp [1]	half-life [2]	solubility [3, 4]	IC50 (Bovine Xanthine Oxidase)	IC50 (NOX2)	SMILES	Permeability(pH7.4) (PAMPA_Pion_Lipid 1e-6 cm/s) [1]	Rat_SD/Microsomes t1/2 (m) [2]	solubility [3]
171 ×10⁻⁶ cm/s	1.7 min	> 66 µg/mL	1380 ± 1160 nM		CN1CCc2ccc(-c3cn(C4CC4)c4nccc(N[S+](=O)([O-])c5ccn(C)n5)c34)cc21 [NCGC00600897, CN1C=CC(=N1)[S+]([O-])(=O)NC2=C3C(=CN(C4CC4)C3=NC=C2)C5=CC6=C(CCN6C)C=C5]			
191 ×10⁻⁶ cm/s	4.5 min	> 64 µg/mL	7520 ± 10500 nM	1530 ± 1360 nM	Cn1ccc([S+](=O)([O-])Nc2ccnc3c2c(-c2ccc4c(c2)NCC4)cn3C2CC2)n1 [NCGC00601851, CN1C=CC(=N1)[S+]([O-])(=O)NC2=C3C(=CN(C4CC4)C3=NC=C2)C5=CC6=C(CCN6)C=C5]			
13 ×10⁻⁶ cm/s	14.5 min	24 µg/mL (≈ 53.5 µM)	> 20000 nM	447 nM	Cn1ccc([S+](=O)([O-])Nc2ccnc3c2c(-c2ccc4c(c2)C(N)CC4)cn3C2CC2)n1 (stereo not shown) [NCGC00650025, CN1C=CC(=N1)[S+]([O-])(=O)NC2=C3C(=CN(C4CC4)C3=NC=C2)C5=CC6=C(CCC6N)C=C5]			
1420 ×10⁻⁶ cm/s	0.9 min	1 µg/mL (≈ 2.31 µM)	> 20000 nM	3100 ± 2590 nM	Cn1ccc([S+](=O)([O-])Nc2ccnc3c2c(-c2ccc4c(c2)CCC4)cn3C2CC2)n1 [NCGC00650026, CN1C=CC(=N1)[S+]([O-])(=O)NC2=C3C(=CN(C4CC4)C3=NC=C2)C5=CC6=C(CCC6)C=C5]			
249 ×10⁻⁶ cm/s	> 30 min	22.9 µg/mL (≈ 44.5 µM)	4210 ± 550 nM	15200 nM	Cn1ccc([S+](=O)([O-])Nc2ccnc3c2c(-c2ccc4c(c2)N(C2CC2)C(=O)C42CC2)cn3C2CC2)n1 [NCGC00650040, CN1C=CC(=N1)[S+]([O-])(=O)NC2=C3C(=CN(C4CC4)C3=NC=C2)C5=CC6=C(C=C5)C7(CC7)C(=O)N6C8CC8]			
4 ×10⁻⁶ cm/s	17.9 min	> 68 µg/mL	2290 ± 3230 nM	1610 nM	CNC1CCc2ccc(-c3cn(C4CC4)c4nccc(N[S+](=O)([O-])c5ccn(C)n5)c34)cc21 (stereo not shown) [NCGC00650057, CNC1CCC2=C1C=C(C=C2)C3=CN(C4CC4)C5=NC=CC(N[S+]([O-])(=O)C6=NN(C)C=C6)=C35]			
	4.6 min	8.2 µg/mL (≈ 15.3 µM)	> 20000 nM	3930 nM	Cn1ccc([S+](=O)([O-])Nc2ccnc3c2c(-c2ccc4c(c2)N(C(=O)OC(C)(C)C)CC4)cn3C2CC2)n1 [NCGC00650103, CN1C=CC(=N1)[S+]([O-])(=O)NC2=C3C(=CN(C4CC4)C3=NC=C2)C5=CC6=C(CCN6C(=O)OC(C)(C)C)C=C5]			
